Results: ChEMBL document CHEMBL5137094, “Construction of Covalent Bisubstrate Inhibitor of Protein Kinase Reacting with Cysteine Residue at Substrate-Binding Site” (J Med Chem, 2022)
Values belong to the compound of their own block, whether it stands above or below them. The source made the active and inactive calls. The rule behind the calls is not given here.

Experiments:
[1] = molecular target: T1, cAMP-dependent protein kinase catalytic subunit alpha (Homo sapiens, UniProt P17612); assay: Displacement of ARC-1063 fluorescent probe from recombinant human PKAC-alpha assessed as binding constant (kon) preincubated for 1 hr followed by photoluminescent probe addition by time-gated luminescence intensity based assay
[2] = molecular target: T1, cAMP-dependent protein kinase catalytic subunit alpha; assay: Inhibition of ARC-1063 fluorescent probe binding to recombinant human PKAC-alpha incubated for 1 hr by time-gated luminescence intensity based displacement assay
[3] = molecular target: T1, cAMP-dependent protein kinase catalytic subunit alpha; assay: Displacement of ARC-1063 fluorescent probe from recombinant human PKAC-alpha assessed as dissociation equilibrium constant preincubated for 1 hr followed by photoluminescent probe addition by time-gated luminescence intensity based assay
[4] = molecular target: T1, cAMP-dependent protein kinase catalytic subunit alpha; assay: Displacement of ARC-1063 fluorescent probe from recombinant human PKAC-alpha assessed as dissociation half life preincubated for 1 hr followed by photoluminescent probe addition by time-gated luminescence intensity based assay
[5] = test system: RAC-gamma serine/threonine-protein kinase (Homo sapiens), Q9Y243 [S472D]; assay: Binding affinity to N-terminal 6His-tagged active recombinant human spiked Akt3 S472D mutant (117 to end residues) in human PC-3 cell lysates assessed as irreversible compound-protein adduct formation by measuring remaining activity at 150 nM incubated for 1 hr by Akt3 antibody immunostaining based Western blot analysis; format: subcellular
[6] = molecular target: T1, cAMP-dependent protein kinase catalytic subunit alpha; assay: Binding affinity to recombinant human active PKAC-alpha assessed as compound-protein adduct formation by measuring formation of three bands at 1.5 uM incubated for 1 hr by 5-TAMRA dye based immunostaining analysis
[7] = molecular target: cAMP-dependent protein kinase catalytic subunit beta (Homo sapiens) (UniProt P22694); assay: Binding affinity to recombinant full length human spiked PKAC-beta in human PC-3 cell lysates assessed as irreversible compound-protein adduct formation at 150 nM incubated for 1 hr by 5-TAMRA dye based Western blot analysis; format: subcellular
[8] = molecular target: cAMP-dependent protein kinase catalytic subunit beta (Homo sapiens) (UniProt P22694); assay: Binding affinity to recombinant full length human spiked PKAC-beta in human PC-3 cell lysates assessed as irreversible compound-protein adduct formation by measuring remaining activity at 150 nM measured after 1 hr by […] immunostaining based Western blot analysis; format: subcellular
[9] = molecular target: T2, Aurora kinase A (Homo sapiens) (UniProt O14965); assay: (§1) Binding affinity to N-terminal 6His-tagged active recombinant full length human spiked Aurora A in human PC-3 cell lysates assessed as irreversible compound-protein adduct formation at 150 nM incubated for 1 hr by 5-TAMRA dye based Western blot analysis; format: subcellular
T2 sequence (whole entry): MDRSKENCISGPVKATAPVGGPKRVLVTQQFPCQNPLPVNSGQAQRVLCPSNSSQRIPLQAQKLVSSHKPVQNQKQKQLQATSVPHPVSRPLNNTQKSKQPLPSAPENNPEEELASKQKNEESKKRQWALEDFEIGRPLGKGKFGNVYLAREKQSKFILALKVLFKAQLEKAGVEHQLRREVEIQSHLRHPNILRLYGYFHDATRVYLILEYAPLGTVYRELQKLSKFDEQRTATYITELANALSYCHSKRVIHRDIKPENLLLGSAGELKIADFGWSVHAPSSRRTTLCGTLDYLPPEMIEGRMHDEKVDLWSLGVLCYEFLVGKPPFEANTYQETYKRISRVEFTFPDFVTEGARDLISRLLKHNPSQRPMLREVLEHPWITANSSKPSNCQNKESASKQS

[10] = molecular target: T1, cAMP-dependent protein kinase catalytic subunit alpha; assay: Binding affinity to recombinant human spiked PKAC-alpha in human U2OS cell lysates assessed as covalent compound-protein adduct formation at 1.5 uM incubated for 1 hr in presence of PK inhibitor, staurosporin by 5-TAMRA dye based Western blot analysis; format: subcellular
[11] = molecular target: T1, cAMP-dependent protein kinase catalytic subunit alpha; assay: Binding affinity to recombinant human spiked PKAC-alpha in human HeLa cells assessed as covalent compound-protein adduct formation by measuring multiple fluorescent band formation at 150 nM incubated for 1 hr by 5-TAMRA dye based Western blot analysis; format: cell-based
[12] = molecular target: T1, cAMP-dependent protein kinase catalytic subunit alpha; assay: Binding affinity to recombinant human spiked PKAC-alpha in human U2OS cell lysates assessed as covalent compound-protein adduct formation at 1.5 uM incubated for 1 hr in presence of GSH by 5-TAMRA dye based Western blot analysis; format: subcellular
[13] = test system: RAC-gamma serine/threonine-protein kinase (Homo sapiens), Q9Y243 [S472D]; assay: Binding affinity to N-terminal 6His-tagged active recombinant human spiked Akt3 S472D mutant (117 to end residues) in human PC-3 cell lysates assessed as irreversible compound-protein adduct formation at 150 nM incubated for 1 hr by 5-TAMRA dye based Western blot analysis; format: subcellular
[14] = molecular target: T2, Aurora kinase A (Homo sapiens); assay: as §1, with “formation by measuring remaining activity” for “formation”, “Aurora A antibody immunostaining” for “5-TAMRA dye”; format: subcellular
[15] = molecular target: T1, cAMP-dependent protein kinase catalytic subunit alpha; assay: Binding affinity to recombinant human spiked PKAC-alpha in human U2OS cell lysates assessed as covalent compound-protein adduct formation at 1.5 uM incubated for 1 hr by 5-TAMRA dye based Western blot analysis; format: subcellular
[16] = molecular target: T1, cAMP-dependent protein kinase catalytic subunit alpha; assay: Binding affinity to recombinant human spiked PKAC-alpha in human PC-3 cell lysates assessed as covalent compound-protein adduct formation at 15 nM incubated for 1 hr by 5-TAMRA dye based Western blot analysis; format: subcellular
[17] = molecular target: T1, cAMP-dependent protein kinase catalytic subunit alpha; assay: Binding affinity to recombinant human spiked PKAC-alpha in human HeLa cells assessed as covalent compound-protein adduct formation by measuring multiple fluorescent band formation at 1.5 uM incubated for 1 hr by 5-TAMRA dye based Western blot analysis; format: cell-based
[18] = molecular target: Ribosomal protein S6 kinase alpha-5 (Homo sapiens) (UniProt O75582); assay: Binding affinity to N-terminal 6His-tagged recombinant human spiked MSK1 (2 to end residues) in human PC-3 cell lysates assessed as irreversible compound-protein adduct formation at 150 nM incubated for 1 hr by 5-TAMRA dye based Western blot analysis; format: subcellular
[19] = molecular target: T1, cAMP-dependent protein kinase catalytic subunit alpha; assay: Binding affinity to human recombinant PKACalpha assessed as compound-protein adduct formation by measuring half life at 30 degreeC
[20] = molecular target: T1, cAMP-dependent protein kinase catalytic subunit alpha; assay: Binding affinity to human recombinant PKAC-alpha assessed as reduction in TGLI signal at 10 uM pretreated with compound followed by ARC-1063 fluorescent probe addition by time-gated luminescence intensity based displacement assay; conditions: time 60-480 min, TDE = time-dependent effect
[21] = molecular target: T1, cAMP-dependent protein kinase catalytic subunit alpha; assay: Covalent inhibition of human recombinant PKAC-alpha assessed as inhibition constant
[22] = molecular target: T1, cAMP-dependent protein kinase catalytic subunit alpha; assay: Binding affinity to human recombinant PKAC-alpha assessed as inactivation constant incubated for 1 hr by time-gated luminescence intensity based displacement assay

Chain of RAC-gamma serine/threonine-protein kinase (Homo sapiens), Q9Y243 [S472D] (Q9Y243 whole entry S472D): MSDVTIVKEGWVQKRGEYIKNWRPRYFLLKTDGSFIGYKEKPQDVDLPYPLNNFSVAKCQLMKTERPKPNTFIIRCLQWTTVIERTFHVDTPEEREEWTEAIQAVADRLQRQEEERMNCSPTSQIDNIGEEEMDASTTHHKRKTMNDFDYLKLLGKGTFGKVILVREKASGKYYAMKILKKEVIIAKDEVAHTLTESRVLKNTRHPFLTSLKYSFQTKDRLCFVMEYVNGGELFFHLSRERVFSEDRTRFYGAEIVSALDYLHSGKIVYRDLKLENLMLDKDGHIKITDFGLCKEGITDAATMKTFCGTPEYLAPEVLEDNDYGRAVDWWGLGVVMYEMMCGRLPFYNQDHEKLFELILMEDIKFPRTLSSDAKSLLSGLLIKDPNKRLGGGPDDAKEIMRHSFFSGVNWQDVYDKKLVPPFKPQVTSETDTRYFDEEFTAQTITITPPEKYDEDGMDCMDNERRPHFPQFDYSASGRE
Chain of Ribosomal protein S6 kinase alpha-5 (Homo sapiens) (O75582 whole entry, looked up): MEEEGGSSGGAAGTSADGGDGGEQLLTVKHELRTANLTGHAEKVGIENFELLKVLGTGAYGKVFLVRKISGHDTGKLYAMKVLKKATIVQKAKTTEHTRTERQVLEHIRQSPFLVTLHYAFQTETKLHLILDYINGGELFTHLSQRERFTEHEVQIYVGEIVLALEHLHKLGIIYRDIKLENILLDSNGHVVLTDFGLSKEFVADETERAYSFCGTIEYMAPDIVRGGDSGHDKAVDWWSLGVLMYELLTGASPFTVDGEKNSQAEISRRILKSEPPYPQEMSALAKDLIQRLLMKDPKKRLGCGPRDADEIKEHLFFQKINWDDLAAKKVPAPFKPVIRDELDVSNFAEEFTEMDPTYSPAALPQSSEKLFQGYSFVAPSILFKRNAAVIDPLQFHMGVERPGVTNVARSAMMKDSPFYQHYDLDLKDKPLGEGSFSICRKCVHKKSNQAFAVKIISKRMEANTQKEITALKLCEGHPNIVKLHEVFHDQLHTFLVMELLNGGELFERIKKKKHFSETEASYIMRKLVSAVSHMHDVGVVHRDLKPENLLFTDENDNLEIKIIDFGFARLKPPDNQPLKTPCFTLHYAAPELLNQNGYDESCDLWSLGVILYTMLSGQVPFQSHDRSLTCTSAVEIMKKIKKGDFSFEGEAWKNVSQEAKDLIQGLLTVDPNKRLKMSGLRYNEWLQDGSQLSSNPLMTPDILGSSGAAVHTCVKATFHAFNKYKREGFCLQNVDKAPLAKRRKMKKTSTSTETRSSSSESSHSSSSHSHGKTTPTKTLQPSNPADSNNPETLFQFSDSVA

K [1]: 3.8 10^7/M/s
IC50 [2]: 790 nM
Kd [3]: 0.63 nM
T1/2 [4]: 0.5 min
SMILES: CC[C@H](C)[C@H](NC(=O)CCC(=O)N[C@@H](CCCCNC(=O)[C@@H](CCCNC(=N)N)NC(=O)CCCCCCCC(=O)N1CCN(c2ncnc3[nH]ccc23)CC1)C(=O)N[C@H](CCCNC(=N)N)C(N)=O)C(=O)NCC(C)=O

K [1]: 3.3 10^7/M/s
IC50 [2]: 6100 nM
Kd [3]: 4.2 nM
T1/2 [4]: 0.1 min
SMILES: CC[C@H](C)[C@H](NC(=O)CCC(=O)N[C@@H](CCCCNC(=O)[C@@H](CCCNC(=N)N)NC(=O)CCCCCCCC(=O)N1CCN(c2ncnc3[nH]ccc23)CC1)C(N)=O)C(=O)NCC(C)=O

Activity [5]: Active
Activity [6]: Active
Activity [7]: Active
Activity [8]: Active
Activity [9]: Active
Activity [10]: Active
Activity [11]: Active
Activity [12]: Active
Activity [13]: Active
Activity [14]: Active
Activity [15]: Active
Activity [16]: Active
Activity [17]: Active
Activity [18]: Active
SMILES: CC[C@H](C)[C@H](NC(=O)CCC(=O)N[C@@H](CCCCNC(=O)[C@@H](CCCNC(=N)N)NC(=O)CCCCCCCC(=O)N1CCN(c2ncnc3[nH]ccc23)CC1)C(=O)N[C@H](CCCNC(=N)N)C(=O)N[C@H](CCCNC(=N)N)C(=O)N[C@H](CCCCNC(=O)c1ccc(-c2c3ccc(=[N+](C)C)cc-3oc3cc(N(C)C)ccc23)c(C(=O)O)c1)C(N)=O)C(=O)NCC(=O)CF

T1/2 [19]: 346 min
Activity [20]: Tde
T1/2 [4]: > 150 min
Ki [21]: 4.2 nM
Kinact [22]: 3.3 10^-5/s
SMILES: CC[C@H](C)[C@H](NC(=O)CCC(=O)N[C@@H](CCCCNC(=O)[C@@H](CCCNC(=N)N)NC(=O)CCCCCCCC(=O)N1CCN(c2ncnc3[nH]ccc23)CC1)C(N)=O)C(=O)NCC(=O)CF

K [1]: 2.2 10^8/M/s
IC50 [2]: 5.6 nM
Kd [3]: 0.0049 nM
T1/2 [4]: 11.1 min
SMILES: CC[C@H](C)[C@H](NC(=O)CCC(=O)N[C@@H](CCCCNC(=O)[C@@H](CCCNC(=N)N)NC(=O)CCCCCCCC(=O)N1CCN(c2ncnc3[nH]ccc23)CC1)C(=O)N[C@H](CCCNC(=N)N)C(=O)N[C@H](CCCNC(=N)N)C(=O)N[C@H](CCCNC(=N)N)C(N)=O)C(=O)NCC(C)=O
